# Experimental data published in PMC9977574 (Gut, 2022).
# Target: FKBP8 (FK506 binding protein 8) (Homo sapiens, UniProt Q14318)
# Test: microscale thermophoresis competition with recombinant proteins
# FKBP8 (FK506 binding protein 8), sequence (Q14318 whole entry): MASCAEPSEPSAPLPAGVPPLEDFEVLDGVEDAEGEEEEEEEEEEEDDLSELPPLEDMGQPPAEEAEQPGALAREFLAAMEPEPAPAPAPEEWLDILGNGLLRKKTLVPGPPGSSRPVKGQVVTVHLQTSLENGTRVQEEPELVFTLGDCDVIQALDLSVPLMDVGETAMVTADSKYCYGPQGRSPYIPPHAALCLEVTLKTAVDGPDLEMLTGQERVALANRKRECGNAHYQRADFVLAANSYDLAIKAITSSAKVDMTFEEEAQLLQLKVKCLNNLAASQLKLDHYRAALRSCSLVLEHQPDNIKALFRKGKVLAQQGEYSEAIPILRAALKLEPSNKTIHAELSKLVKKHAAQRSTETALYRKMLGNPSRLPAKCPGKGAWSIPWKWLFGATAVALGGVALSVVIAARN
# FKBP8 (FK506 binding protein 8), sequence (Q15746 whole entry partner): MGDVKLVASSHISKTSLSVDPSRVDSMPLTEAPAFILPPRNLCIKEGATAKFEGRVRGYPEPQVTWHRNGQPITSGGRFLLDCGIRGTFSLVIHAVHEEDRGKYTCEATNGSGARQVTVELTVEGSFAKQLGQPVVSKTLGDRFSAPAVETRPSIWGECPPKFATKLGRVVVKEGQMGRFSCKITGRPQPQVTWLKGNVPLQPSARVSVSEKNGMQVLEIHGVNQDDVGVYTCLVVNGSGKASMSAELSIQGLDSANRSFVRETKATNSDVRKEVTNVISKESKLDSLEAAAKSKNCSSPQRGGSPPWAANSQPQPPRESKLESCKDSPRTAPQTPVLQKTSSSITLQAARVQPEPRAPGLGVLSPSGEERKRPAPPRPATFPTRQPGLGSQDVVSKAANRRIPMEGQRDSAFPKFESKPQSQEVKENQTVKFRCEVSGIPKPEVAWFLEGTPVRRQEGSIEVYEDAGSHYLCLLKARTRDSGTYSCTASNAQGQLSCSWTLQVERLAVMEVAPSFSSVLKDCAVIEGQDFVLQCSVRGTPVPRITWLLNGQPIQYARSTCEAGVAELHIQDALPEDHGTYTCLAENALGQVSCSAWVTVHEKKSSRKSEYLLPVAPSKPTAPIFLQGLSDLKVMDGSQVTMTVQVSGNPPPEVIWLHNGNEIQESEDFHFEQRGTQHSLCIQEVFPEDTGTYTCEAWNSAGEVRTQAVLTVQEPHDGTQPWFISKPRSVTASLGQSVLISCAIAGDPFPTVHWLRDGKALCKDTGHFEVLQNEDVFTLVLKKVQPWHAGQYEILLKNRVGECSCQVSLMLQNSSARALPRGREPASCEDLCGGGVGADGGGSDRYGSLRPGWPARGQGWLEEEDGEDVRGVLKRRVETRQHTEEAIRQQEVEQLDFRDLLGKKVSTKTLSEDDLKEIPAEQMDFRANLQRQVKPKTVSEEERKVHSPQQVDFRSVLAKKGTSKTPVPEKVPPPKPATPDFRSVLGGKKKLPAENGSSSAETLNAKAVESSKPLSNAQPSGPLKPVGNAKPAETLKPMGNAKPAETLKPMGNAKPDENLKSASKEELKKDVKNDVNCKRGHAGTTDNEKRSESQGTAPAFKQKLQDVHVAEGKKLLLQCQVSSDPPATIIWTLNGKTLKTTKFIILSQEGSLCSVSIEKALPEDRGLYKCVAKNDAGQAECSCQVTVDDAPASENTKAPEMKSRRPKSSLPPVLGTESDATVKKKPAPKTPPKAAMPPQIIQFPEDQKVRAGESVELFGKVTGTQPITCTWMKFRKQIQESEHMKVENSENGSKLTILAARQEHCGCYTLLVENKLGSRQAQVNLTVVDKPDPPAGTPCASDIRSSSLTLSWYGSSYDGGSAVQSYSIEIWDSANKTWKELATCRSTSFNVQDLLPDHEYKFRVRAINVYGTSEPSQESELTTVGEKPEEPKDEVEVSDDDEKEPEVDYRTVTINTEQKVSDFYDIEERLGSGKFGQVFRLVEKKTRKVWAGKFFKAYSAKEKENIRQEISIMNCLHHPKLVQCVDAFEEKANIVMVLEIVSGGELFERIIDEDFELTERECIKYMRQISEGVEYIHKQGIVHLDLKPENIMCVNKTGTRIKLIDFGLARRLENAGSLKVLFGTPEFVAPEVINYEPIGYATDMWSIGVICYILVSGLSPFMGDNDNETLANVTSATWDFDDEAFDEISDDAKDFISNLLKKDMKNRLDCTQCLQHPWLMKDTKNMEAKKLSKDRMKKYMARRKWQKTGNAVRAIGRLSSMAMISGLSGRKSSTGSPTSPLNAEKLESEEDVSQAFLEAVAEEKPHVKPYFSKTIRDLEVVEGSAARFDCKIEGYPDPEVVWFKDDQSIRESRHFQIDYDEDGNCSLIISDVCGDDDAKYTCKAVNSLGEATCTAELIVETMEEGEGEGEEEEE
smiles,measurement,value
C=CC[C@@H]1/C=C(\C)C[C@H](C)C[C@H](OC)[C@H]2O[C@@](O)(C(=O)C(=O)N3CCCC[C@H]3C(=O)O[C@H](/C(C)=C/[C@@H]3CC[C@@H](O)[C@H](OC)C3)[C@H](C)[C@@H](O)CC1=O)[C@H](C)C[C@@H]2OC [tacrolimus],IC50,68.7 ± 13.3 µM
